In patent publication US20160139152A1, “Biosensor Using Cell That Expresses Chemosensory Receptor That Can Detect Sugar, And Alzheimer's Disease Diagnostic Apparatus Comprising Same” (KYUNGPOOK NATIONAL UNIVERSITY INDUSTRY-ACADEMIC COOPERATION …, priority 2013, published 2016):

Experiments:
[1] = tested on: S2 cells; experiment: Voltage change of ISFET biosensor (reference unit) with fixed S2 cells or general culture media; type: cell-based, Drosophila; details: FIG. 9
Text: A cell line expressing Gr5a, which is one of drosophila gustatory receptors, was established with Drosophila Expression System (Invitrogen) using Drosophila Schneider 2 (S2) cells that cannot detect sugar (http://tools.invitrogen.com/content/sfs/manuals/des_man.pdf). A high concentration of a polycrystalline silicon thin film was deposited on a p-type silicon substrate through a low pressure chemical vapor deposition (LPCVD) vacuum equipment, and a source electrode and a drain electrode were formed spaced away from each other using lithographic and dry etching processes. An oxide layer was formed of a silicon dioxide (SiO2) layer, a hafnium oxide (HfO2) layer located on the silicon dioxide layer, and an aluminum oxide (Al2O3) layer located on the hafnium oxide layer, on the silicon layer. Rapid thermal treatment (at 850° C. for 30 seconds) was conducted under N2/O2 gas atmosphere, in order to activate the source electrode, the drain electrode, and the oxide layer, successively. After the rapid thermal treatment, a metal electrode was deposited by e-beam deposition. Thereafter, a wall structure was constructed with polydimethylsiloxane (PDMS), and an electrolyte was put into the wall structure, to prepare an ISFET based biosensor. A pair ISFET structure was developed capable of sensing by distinguishing the experimental group from the control group, as shown in FIG. 8. […]

[2] = target: T1, Gr5a (Drosophila melanogaster, UniProt Q9W497); experiment: Voltage change of ISFET biosensor (sensing unit) with fixed drosophila cell line expressing Gr5a; type: cell-based; details: FIG. 9
T1 construct: After cloning Gr5a cDNA into a pAC vector; expressed in transfected cells
T1 sequence (Q9W497 1-444): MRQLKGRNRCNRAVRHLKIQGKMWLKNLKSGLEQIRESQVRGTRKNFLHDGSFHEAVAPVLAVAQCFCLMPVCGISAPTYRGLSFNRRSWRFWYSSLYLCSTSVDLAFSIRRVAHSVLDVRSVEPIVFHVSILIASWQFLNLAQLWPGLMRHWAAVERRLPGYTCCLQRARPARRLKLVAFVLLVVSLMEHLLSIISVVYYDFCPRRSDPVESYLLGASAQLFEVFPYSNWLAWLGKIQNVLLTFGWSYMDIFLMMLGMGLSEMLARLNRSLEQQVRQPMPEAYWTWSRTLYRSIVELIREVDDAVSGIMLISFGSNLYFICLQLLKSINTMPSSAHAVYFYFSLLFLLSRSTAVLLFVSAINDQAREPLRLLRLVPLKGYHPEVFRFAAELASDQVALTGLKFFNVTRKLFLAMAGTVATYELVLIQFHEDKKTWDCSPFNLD
Experimental: A cell line expressing Gr5a, which is one of drosophila gustatory receptors, was established with Drosophila Expression System (Invitrogen) using Drosophila Schneider 2 (S2) cells that cannot detect sugar (http://tools.invitrogen.com/content/sfs/manuals/des_man.pdf). After cloning Gr5a cDNA into a pAC vector, the S2 cell line was co-transfected with 2 μg of the cloned plasmid and 200 ng of pCoHygro which is a selection vector resistant to hygromycin, using polyethylenimine (PEI) in a Schneider medium (Invitrogen) containing no serum. A stable cell line expressing Gr5a was established by culturing in a medium containing hygromycin every 4 days, at least 6 times. A high concentration of a polycrystalline silicon thin film was deposited on a p-type silicon substrate through a low pressure chemical vapor deposition (LPCVD) vacuum equipment, and a source electrode and a drain electrode were formed spaced away from each other using lithographic and dry etching processes. An oxide layer was formed of a silicon dioxide (SiO2) layer, a hafnium oxide (HfO2) layer located on the silicon dioxide layer, and an aluminum oxide (Al2O3) layer located on the hafnium oxide layer, on the silicon layer. Rapid thermal treatment (at 850° C. for 30 seconds) was conducted under N2/O2 gas atmosphere, in order to activate the source electrode, the drain electrode, and the oxide layer, successively. […]

OC[C@H]1O[C@H](O[C@H]2O[C@H](CO)[C@@H](O)[C@H](O)[C@H]2O)[C@H](O)[C@@H](O)[C@@H]1O [trehalose]
change in voltage of the pair ISFET depending on the concentration of trehalose [1]: voltage changes little
change in voltage of the pair ISFET depending on the concentration of trehalose [2]: voltage remarkably increases
